In patent publication US5631354A, “5-O-desosaminylerythronolide derivatives” (Taisho Pharmaceutical Co., Ltd., priority 1991, dated 1997):
In brackets after ≈: the same amount, converted by molar mass. Where two headings read alike, the source gives them in different places.

Legend:
Assay in all cases: in vitro antibacterial activity (MIC measuring method of Japanese Chemotherapeutic Association)
Type in all cases: cell-based
[1] = tested on: S. aureus J-109; settings: Staphylococcus aureus, J109, sensitive disc media, read-out: MIC value (minimum inhibitory concentration)
Description: (§1) The in vitro antibacterial activity of the compounds of the present invention against various test bacteria was determined according to the MIC measuring method of Japanese Chemotherapeutic Association by using a sensitive disc media (available from Eiken Chemical Co.). 6-O-methylerythromycin A was used as a reference agent in Table 1, and erythromycin A in Table 2.

[2] = tested on: S. aureus C1; settings: Staphylococcus aureus
Description: as §1

[3] = tested on: S. epidermides IID 866; settings: read-out: MIC value (minimum inhibitory concentration)
Description: as §1

[4] = tested on: E. faecalis CSJ 1212; settings: Enterococcus faecalis
Description: as §1

[5] = tested on: S. aureus Smith 4; settings: Staphylococcus aureus, SMITH4, sensitive disc media, read-out: MIC value (minimum inhibitory concentration)
Description: as §1

[6] = tested on: S. aureus B1; settings: Staphylococcus aureus
Description: as §1

[7] = tested on: S. aureus 209P-JC; settings: Staphylococcus aureus, read-out: MIC value (minimum inhibitory concentration)
Description: as §1

[8] = C1, read-out: MIC value (minimum inhibitory concentration)
[9] = CSJ1212, E. faecalis CSJ 1212, sensitive disc media, read-out: MIC value (minimum inhibitory concentration)
[10] = B1, read-out: MIC value (minimum inhibitory concentration)
[11] = S. aureus 209P-JC, sensitive disc media
[12] = CSJ1212, read-out: MIC value (minimum inhibitory concentration)

Structure (SMILES) | MIC [1] [µg/mL] | MIC [2, 8] [µg/mL] | MIC [3] [µg/mL] | MIC [4, 9] [µg/mL] | MIC [5] [µg/mL] | MIC [6, 10] [µg/mL] | MIC ([7]; 209P) [µg/mL] | MIC ([6]; S. aureus B1, sensitive disc media, read-out: MIC value (minimum inhibitory concentration)) [µg/mL] | MIC [7, 11] [µg/mL] | MIC [4, 12] [µg/mL] | MIC ([2]; S. aureus C1, sensitive disc media, read-out: MIC value (minimum inhibitory concentration)) [µg/mL]
CC[C@H]1OC(=O)[C@H](C)[C@@H](OC(=O)Cc2ccc([N+](=O)[O-])cc2)[C@H](C)[C@@H](O[C@@H]2O[C@H](C)C[C@H](N(C)C)[C@H]2O)[C@](C)(O)C[C@@H](C)C(=NO)[C@H](C)[C@H]2OC(=O)O[C@@]21C [Example 15, 3-0-(4-nitrophenyl)acetyl-5-O-desosaminylerythronolide A 9-oxime 11,12-cyclic carbonate] | > 100 | 0.78 (≈ 1 µM) | 0.05 (≈ 0.0641 µM) | 0.05 (≈ 0.0641 µM) | 0.05 (≈ 0.0641 µM) | 0.1 (≈ 0.128 µM) | 0.05 (≈ 0.0641 µM) |  |  |  | 
CC[C@H]1OC(=O)[C@H](C)[C@@H](OC(=O)Cc2ccc([N+](=O)[O-])cc2)[C@H](C)[C@@H](O[C@@H]2O[C@H](C)C[C@H](N(C)C)[C@H]2O)[C@](C)(OC)C[C@@H](C)C(=O)[C@H](C)[C@H]2OC(=O)O[C@@]21C [Example 9, 3-O-(4-nitrophenyl)acetyl-5-O-desosaminyl-6-O-methylerythronolide A 11,12 cyclic carbonate] | > 100 | 0.05 (≈ 0.0642 µM) | 0.05 (≈ 0.0642 µM) | 0.05 (≈ 0.0642 µM) | 0.05 (≈ 0.0642 µM) |  |  | 0.2 (≈ 0.257 µM) | 0.025 (≈ 0.0321 µM) |  | 
CC[C@H]1OC(=O)[C@H](C)[C@@H](OC(=O)Cc2ccc([N+](=O)[O-])cc2)[C@H](C)[C@@H](O[C@@H]2O[C@H](C)C[C@H](N(C)C)[C@H]2O)[C@](C)(OC)C[C@@H](C)C(=NO)[C@H](C)[C@H]2OC(=O)O[C@@]21C [Example 1, 3-O-(4-nitrophenyl)acetyl-5-O-desosaminyl-6-O-methylerythronolide A 9-oxime 11,12cyclic carbonate] | > 100 | 0.1 (≈ 0.126 µM) | 0.05 (≈ 0.063 µM) | 0.05 (≈ 0.063 µM) | 0.05 (≈ 0.063 µM) | 0.1 (≈ 0.126 µM) |  |  | 0.025 (≈ 0.0315 µM) |  | 
CC[C@H]1OC(=O)[C@H](C)[C@@H](O[C@H]2C[C@@](C)(OC)[C@@H](O)[C@H](C)O2)[C@H](C)[C@@H](O[C@@H]2O[C@H](C)C[C@H](N(C)C)[C@H]2O)[C@](C)(O)C[C@@H](C)C(=O)[C@H](C)[C@@H](O)[C@]1(C)O [erythromycin A, reference compound] | > 100 | > 100 | 0.1 (≈ 0.136 µM) |  | 0.2 (≈ 0.273 µM) | > 100 | 0.1 (≈ 0.136 µM) |  |  | 0.78 (≈ 1.06 µM) | 
CC[C@H]1OC(=O)[C@H](C)[C@@H](OC(=O)Cc2ccc([N+](=O)[O-])cc2[N+](=O)[O-])[C@H](C)[C@@H](O[C@@H]2O[C@H](C)C[C@H](N(C)C)[C@H]2O)[C@](C)(OC)C[C@@H](C)C(=O)[C@H](C)[C@@H](O)[C@]1(C)O [Example 3, 3-O-(2,4-dinitrophenyl)acetyl-5-O-desosaminyl-6-O-methylerythronolide A] | > 100 | 0.1 (≈ 0.125 µM) | 0.1 (≈ 0.125 µM) |  | 0.1 (≈ 0.125 µM) | 0.2 (≈ 0.251 µM) | 0.05 (≈ 0.0627 µM) |  |  | 0.1 (≈ 0.125 µM) | 
CC[C@H]1OC(=O)[C@H](C)[C@@H](O[C@H]2C[C@@](C)(OC)[C@@H](O)[C@H](C)O2)[C@H](C)[C@@H](O[C@@H]2O[C@H](C)C[C@H](N(C)C)[C@H]2O)[C@](C)(OC)C[C@@H](C)C(=O)[C@H](C)[C@@H](O)[C@]1(C)O [6-O-methylerythromycin A, reference compound] | > 100 |  | 0.1 (≈ 0.134 µM) |  | 0.1 (≈ 0.134 µM) | > 100 | 0.05 (≈ 0.0668 µM) |  |  | 0.78 (≈ 1.04 µM) | 25 (≈ 33.4 µM)
